Read-outs that look alike come from different tables or passages of the source.
Legend:
Type in all cases: cell-based, Yersinia pseudotuberculosis
[1] = test system: Yop secretion from the wild-type strain pIB102EL; conditions: supernatant after 3 h at 37° C., Western analysis
[2] = test system: luciferase light signal from pIB102AL (luxAB downstream of the promoter for YerA)
[3] = test system: luciferase light signal from pIB102EL (yopE-luxAB, wild-type); assay: microbe, parasite or virus in culture; conditions: pIB102EL; FIG. 5C
[4] = test system: luciferase light signal from pIB29EL (yopE-luxAB); assay: microbe, parasite or virus in culture; conditions: Yersinia pseudotuberculosis, pIB29EL, Table 2B
[5] = test system: reporter gene signal from pIB102FL (lcrF-luxAB)
[6] = test system: reporter gene signal from pIB102FΔhlhL (lcrFΔhlh-luxAB)

CC(=O)Oc1c(I)cc(I)cc1C(=O)Nc1ccc(Cl)cc1 [Compound 4, 2-acetoxy-4′-chloro-3,5-diiodobenzanilide]
Inhibition of Yop secretion into the surrounding medium (in words) [1]: dose dependent inhibition of secretion | Effect on reporter gene signal (in words) [2]: inhibits the reporter gene signal | Selectivity between pIB102EL (YopE promoter) and control strain pIB102AL (in words) [2]: no selectivity | Effect on reporter gene signal (in words) [3]: inhibits the reporter gene signal | inhibition at 5 µM ([4]; read-out: Inhibition (%) of the luciferase light signal, 5 μM (first of two columns headed 5)): 15% | inhibition at 5 µM ([4]; read-out: Inhibition (%) of the luciferase light signal, 5 μM (second of two columns headed 5)): 45% | inhibition at 10 µM ([4]; read-out: Inhibition (%) of the luciferase light signal, 10 μM): 81% | inhibition at 20 µM ([4]; read-out: Inhibition (%) of the luciferase light signal, 20 μM): 96% | Effect on reporter gene signal (in words) [5]: inhibits the reporter gene signal | Effect on reporter gene signal (in words) [6]: inhibits the reporter gene signal
